According to patent US20180104354A1, “CHIMERIC ANTIGEN RECEPTOR T CELL SWITCHES AND USES THEREOF” (The California Institute for Biomedical Research, priority 2013, published 2018):
Several values for one entry are separate records, joined by “and”; a condition that tells them apart may be missing. Identical values can stand only once. Like-named read-outs stand apart in the source and are kept apart here. One block for each molecule: values may come before it.

How the values were obtained:
[1] = target: Her2 (UniProt P04626); assay: cell-based or functional assay
[2] = tested on: A549 (FR−) cells; assay: In vitro cytotoxicity assay of anti-FITC-CAR-Ts with Folate-FITC, A549; assay type: cell-based; details: Homo sapiens; for cytotoxicity at 320 fM: 0.32 pM; for cytotoxicity at 0.0002 µM: 200 pM; for cytotoxicity at 0.001 µM: 1000 pM; for cytotoxicity at 0.005 µM: 5000 pM
Description: (§1) Transduced human effector cells (˜50% transduction efficiency) were co-incubated with target cells at 10:1 (total T cells to target cells) ratio for 24 hr in the presence of varying concentrations of FITC “switches.” Redirected lysis of target cells was determined by CytoTox96 nonradioactive cytotoxicity assay kit (Promega, Madison, Wis.) according to manufacturer's protocol. The percentage of cytotoxicity was calculated by: % cytotoxicity=(Absorbance experimental average−Absorbance spontaneous average)/(absorbance max killing average−Absorbance spontaneous average)×100.
(§2) Human PBMCs were freshly isolated from whole blood of healthy donors by centrifugation with Ficoll-Paque PLUS (GE healthcare, Piscataway, N.J.) density gradient medium according to manufacturer's protocol. Cells were immediately activated with Dynabeads Human […] CD3/CD28 (Life Technologies, Carlsbad, Calif.) at 3:1 (bead to cell) ratio in AIM-V media (Life Technologies) containing 5% human AB serum (Valley Biomedical, Winchester, Va.). Lentiviral production was carried out using HEK293FT cell lines. Viral supernatant was used directly to transduce activated PBMCs via spinoculation in the presence of protamine sulfate and recombinant human IL2 (R&D systems, Minneapolis, Minn.). C4-2, KB, and A549 cell lines were maintained in RPMI-1640, Eagles's Minimum Essential Media, and F-12K medium supplemented with 10% fetal bovine serum, respectively (all from Life Technologies).
(§3) FIG. 6B-6C depicts the results from an in vitro cytotoxicity assay of anti-FITC-CAR-Ts co-incubated with KB (FR+) (see FIG. 6B) or A549 (FR−) (see FIG. 6C) target cells in the presence of varying concentrations Folate-FITC. Each concentration was carried out in triplicates. Results are shown as average percentage of cytotoxicity.

[3] = tested on: KB (FR+) cells; assay: In vitro cytotoxicity assay of anti-FITC-CAR-Ts with Folate-FITC, KB; assay type: cell-based
Description: as §1, §2, §3

[4] = tested on: C4-2 (PSMA+) tumors; assay: In vivo efficacy, subcutaneous C4-2 tumors in NSG mice; details: s.c. C4-2 tumors
Text: (§4) In brief, subcutaneous C4-2 (PSMA+) tumors were established in non-obese diabetic-severe combined immunodeficiency (NOD-SCID-γ−/−, NSG) mice.

[5] = Pharmacokinetic study of P-TriA-FITC in mice; assay type: in vivo
Text: as §4

[6] = tested on: C4-2 (PSMA+) prostate cancer cells; assay: 24 hr cytotoxicity assay of anti-FITC-CAR T cells with P-TriA-FITC, C4-2; assay type: cell-based; details: triplicates
Description: as §1, §2
FIG. 5B depicts a scheme for synthesis of the TriA-2-[3-(1,3-dicarboxypropyl)ureido] pentanedioic acid linker to be conjugated to FITC. FIG. 5C depicts the results from a 24 hr cytotoxicity assay of anti-FITC-CAR T cells targeting C4-2 (PSMA+) prostate cancer cells with serial dilutions of P-TriA-FITC. Each concentration was carried out in triplicate. Results are shown as average percentage of cytotoxicity.

[7] = target: T1, CD19 (human, UniProt P15391 20-556); assay: cell-based or functional assay
T1 sequence (looked up): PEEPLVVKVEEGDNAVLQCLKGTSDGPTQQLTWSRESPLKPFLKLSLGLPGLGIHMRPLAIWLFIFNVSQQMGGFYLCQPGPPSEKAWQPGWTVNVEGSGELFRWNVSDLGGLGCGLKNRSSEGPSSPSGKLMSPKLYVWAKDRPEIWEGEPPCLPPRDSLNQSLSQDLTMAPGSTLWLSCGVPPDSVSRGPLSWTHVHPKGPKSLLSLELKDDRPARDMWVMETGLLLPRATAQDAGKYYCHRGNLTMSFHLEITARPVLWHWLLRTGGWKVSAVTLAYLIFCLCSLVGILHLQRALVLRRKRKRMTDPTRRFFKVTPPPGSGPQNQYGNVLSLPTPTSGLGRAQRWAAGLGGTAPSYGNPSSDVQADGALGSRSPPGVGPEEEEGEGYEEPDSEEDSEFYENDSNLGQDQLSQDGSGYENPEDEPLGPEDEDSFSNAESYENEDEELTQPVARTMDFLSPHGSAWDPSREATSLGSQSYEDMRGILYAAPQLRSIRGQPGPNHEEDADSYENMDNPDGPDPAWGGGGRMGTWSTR

[8] = target: T1, CD19; assay: cell-based or functional assay; remark: listed apart in the source

Molecule: FITC-anti-Her2 antibody CAR-T switch with FITC conjugated at LC S202pAcF (Fab based on Trastuzumab)
% cytotoxicity; 0.01 pM switch; MDA MB231 cells [1]: 0%
% cytotoxicity; 0.1 pM switch; MDA MB231 cells [1]: 0%
% cytotoxicity; 100 pM switch; MDA MB231 cells [1]: 48%
EC50 of cytotoxicity; SKBR3 cells [1]: 8000 to 20000 pM

Molecule: Nc1nc2ncc(CNc3ccc(C(=O)N[C@H](CCC(=O)NCCNC(=S)Nc4ccc5c(c4)C(=O)OC54c5ccc(O)cc5Oc5cc(O)ccc54)C(=O)O)cc3)nc2c(=O)[nH]1 [FITC-folate switch]
cytotoxicity at 320 fM ([2]; 4M5.3 CAR-T): 0.957%
cytotoxicity at 8 pM ([2]; 4M5.3 CAR-T): 0.765%
cytotoxicity at 40 pM ([2]; 4M5.3 CAR-T): 2.55%
cytotoxicity at 0.0002 µM ([2]; 4M5.3 CAR-T): 5.78%
cytotoxicity at 0.001 µM ([2]; 4M5.3 CAR-T): 5.87%
cytotoxicity at 0.005 µM ([2]; 4M5.3 CAR-T): 3.15%
cytotoxicity at 1.6 pM ([2]; 4M5.3 CAR-T): 0.527%
cytotoxicity at 320 fM ([2]; non-transduced T cells): -0.986%
cytotoxicity at 8 pM ([2]; non-transduced T cells): -1.05%
cytotoxicity at 40 pM ([2]; non-transduced T cells): -1.52%
cytotoxicity at 0.0002 µM ([2]; non-transduced T cells): -0.96%
cytotoxicity at 0.001 µM ([2]; non-transduced T cells): -1.16%
cytotoxicity at 0.005 µM ([2]; non-transduced T cells): -1.61%
cytotoxicity at 1.6 pM ([2]; non-transduced T cells): -1.02%
cytotoxicity at 1.6 pM [3]: 16.5%
cytotoxicity at 8 pM [3]: 37.1%
cytotoxicity at 40 pM [3]: 68.1%
cytotoxicity at 0.0002 µM [3]: 74.6%
cytotoxicity at 0.001 µM [3]: 77.1%
cytotoxicity at 0.005 µM [3]: 77%
cytotoxicity at 320 fM [3]: 8.3%
cytotoxicity at 320 fM ([3]; T-cell, KB (FR+), non-transduced T cells, 0.32 pM): 2.27%
cytotoxicity at 1.6 pM ([3]; T-cell, KB (FR+), non-transduced T cells, 1.6 pM): 3.01%
cytotoxicity at 8 pM ([3]; T-cell, KB (FR+), non-transduced T cells, 8 pM): 2.19%
cytotoxicity at 40 pM ([3]; T-cell, KB (FR+), non-transduced T cells, 40 pM): 2.88%
cytotoxicity at 0.0002 µM ([3]; T-cell, KB (FR+), non-transduced T cells, 200 pM): 2.32%
cytotoxicity at 0.001 µM ([3]; T-cell, KB (FR+), non-transduced T cells, 1000 pM): 2.38%
cytotoxicity at 0.005 µM ([3]; T-cell, KB (FR+), non-transduced T cells, 5000 pM): 2.04%

intravenous (IV) half-life t1/2 [5]: 1.08 ± 0.14 h
Molecule: O=C(O)CCC(NC(=O)NC(CCCCn1cc(CCCCCCNC(=O)c2ccc(C(=O)NCCOCCOCCOCCNC(=O)c3ccc4c(c3)C(=O)OC43c4ccc(O)cc4Oc4cc(O)ccc43)cc2)nn1)C(=O)O)C(=O)O (centres unmarked) [P-TriA-FITC, 2-[3-(1,3-dicarboxypropyl)ureido]pentanedioic acid-TriA-FITC]
Tumor response ([4]; FITC-CART cells (FITC-E2) i.p. plus switch 1 mg/kg i.v. daily for 10 days): tumors had regressed
Tumor response ([4]; switch only, no CART cells): tumor growth continued
percentage of cytotoxicity ([6]; 4M5.3 anti-FITC CAR T cells, 0.000512 pM): 3.992% and 3.358% and 4.689%
percentage of cytotoxicity ([6]; 4M5.3 anti-FITC CAR T cells, 0.012800 pM): 3.555% and 1.304% and 1.206%
percentage of cytotoxicity ([6]; 4M5.3 anti-FITC CAR T cells, 0.320000 pM): 2.224% and 2.545% and 2.965%
percentage of cytotoxicity ([6]; 4M5.3 anti-FITC CAR T cells, 8.000000 pM): 9.173% and 10.76% and 7.583%
percentage of cytotoxicity ([6]; 4M5.3 anti-FITC CAR T cells, 40.000000 pM): 52.56% and 55.81% and 53.56%
percentage of cytotoxicity ([6]; 4M5.3 anti-FITC CAR T cells, 200.000000 pM): 77.22% and 76.53% and 73.92%
percentage of cytotoxicity ([6]; 4M5.3 anti-FITC CAR T cells, 1000.000000 pM): 82.62% and 79.94% and 78.91%
percentage of cytotoxicity ([6]; 4M5.3 anti-FITC CAR T cells, 5000.000000 pM): 82.04% and 77.45% and 78.01%
percentage of cytotoxicity ([6]; Non-transduced T cells, 0.000512 pM): 1.418% and 0.8462% and 1.052%
percentage of cytotoxicity ([6]; Non-transduced T cells, 0.012800 pM): 1.632% and 0.1496% and 0.8552%
percentage of cytotoxicity ([6]; Non-transduced T cells, 0.320000 pM): 0.1943% and 0.5515% and −0.1898%
percentage of cytotoxicity ([6]; Non-transduced T cells, 8.000000 pM): 1.409% and 0.4622% and 0.5515%
percentage of cytotoxicity ([6]; Non-transduced T cells, 40.000000 pM): −1.11% and −0.5828% and 1.177%
percentage of cytotoxicity ([6]; Non-transduced T cells, 200.000000 pM): −0.5292% and 0.5069% and −0.422%
percentage of cytotoxicity ([6]; Non-transduced T cells, 1000.000000 pM): 0.02456% and 0.09601% and 0.04242%
percentage of cytotoxicity ([6]; Non-transduced T cells, 5000.000000 pM): 1.052% and −0.9132% and 0.1139%

B1: anti-CD19 Fab-FITC switch LG68X (pAzF at glycine 68 of the light chain) (Fab, V domains shown)
VH: EVKLQESGPGLVAPSQSLSVTCTVSGVSLPDYGVSWIRQPPRKGLEWLGVIWGSETTYYNSALKSRLTIIKDNSKSQVFLKMNSLQTDDTAIYYCAKHYYYGGSYAMDYWGQGTSVTVSS
VL: DIQMTQTTSSLSASLGDRVTISCRASQDISKYLNWYQQKPDGTVKLLIYHTSRLHSGVPSRFSGSGSXTDYSLTISNLEQEDIATYFCQQGNTLPYTFGGGTKLEIKR
modifications: p-azidophenylalanine (pAzF) at LC G68, clicked to cyclooctyne-FITC linker
Cytotoxicity EC50; FITC-E2 CAR-T; NALM6 cells [7]: 3.53 pM
% cytotoxicity; 0.01 pM switch; FITC-E2 CAR-T; NALM6 cells [8]: 0%
% cytotoxicity; 0.1 pM switch; FITC-E2 CAR-T; NALM6 cells [8]: 3.85%
% cytotoxicity; 1 pM switch; FITC-E2 CAR-T; NALM6 cells [8]: 17.8%
% cytotoxicity; 10 pM switch; FITC-E2 CAR-T; NALM6 cells [8]: 56.7%
% cytotoxicity; 100 pM switch; FITC-E2 CAR-T; NALM6 cells [8]: 78.1%
% cytotoxicity; 1000 pM switch; FITC-E2 CAR-T; NALM6 cells [8]: 74.5%

B2: anti-CD19 Fab-FITC switch HS74X (pAzF at serine 74 of the heavy chain) (Fab, V domains shown)
VH: EVKLQESGPGLVAPSQSLSVTCTVSGVSLPDYGVSWIRQPPRKGLEWLGVIWGSETTYYNSALKSRLTIIKDNXKSQVFLKMNSLQTDDTAIYYCAKHYYYGGSYAMDYWGQGTSVTVSS
VL: DIQMTQTTSSLSASLGDRVTISCRASQDISKYLNWYQQKPDGTVKLLIYHTSRLHSGVPSRFSGSGSGTDYSLTISNLEQEDIATYFCQQGNTLPYTFGGGTKLEIKR
modifications: pAzF at HC S74, clicked to cyclooctyne-FITC linker
Cytotoxicity EC50; FITC-E2 CAR-T; NALM6 cells [7]: 0.97 pM
% cytotoxicity; 0.01 pM switch; FITC-E2 CAR-T; NALM6 cells [8]: 0%
% cytotoxicity; 0.1 pM switch; FITC-E2 CAR-T; NALM6 cells [8]: 21.4%
% cytotoxicity; 1 pM switch; FITC-E2 CAR-T; NALM6 cells [8]: 47.6%
